Experimental data published in patent US6448024B1, “Method, reagent, cartridge, and device for determining fibrinogen” (Roche Diagnostics Corporation, priority 2000, dated 2002).
“And” between values parts separate entries of the source, which are not always exact repeats. Equal entries are not always repeated. Where two headings read alike, the source gives them in different places.

Key:
[1] = system: thrombin; experiment: One or both of the two assays (wet and cartridge), summary of effective thrombin inhibitors; format: biochemical; details: wet and/or cartridge assay; result in words
[2] = system: thrombin; experiment: Wet screening assay for thrombin inhibitors with BBL Fibrometer (clotting time of fibrinogen solutions); format: biochemical, human plasma or bovine; details: for Clot Time: 200 μL 0.5 mg/mL D.S. working solution, 50 μL 100 U/mL thrombin; for Found useful/effective as thrombin inhibitor in fibrometer wet assay: result in words; for Clotting Time (average), n = 2: 15 mg/mL benzamidine (final concentration)
Description: Materials and Methods: A phosphate buffered saline (PBS)-albumin solution was formed as follows:
2) 100 U/mL thrombin working solution; thrombin was obtained from Calbiochem (605206—human plasma, or 605157—bovine); and
3) fibrinogen working solutions having fibrinogen concentrations ranging from between 6 and 24 mg/mL fibrinogen; fibrinogen was obtained from Calbiochem (341578).
Screening Assay Procedure Using Fibrometer: A BBL Fibrometer was utilized to determine clotting times of test solutions. Test solutions were formed by adding the following components in the following order:
1. 200 μL D.S. working solution,
2. 50 μL thrombin working solution,
3. 50 μL fibrinogen working solution.
Immediately upon addition of the third component (i.e., the fibrinogen working solution), the fibrometer was activated, resulting in the probe being released into the vessel containing the reaction solution. The probe was agitated until sufficient resistance to motion was reached corresponding to a predetermined degree of clotting. A display indicated time from activation of the probe until the predetermined degree of clotting was reached.
Using the method of Example 1, 15 mg/mL benzamidine (Sigma B6506) in the PBS-albumin solution (final concentration) was contacted with samples containing varying amounts of fibrinogen.

[3] = molecular target: T1, thrombin (Bos taurus, UniProt P00735)
Description: Additional cartridges were prepared in which specific inhibitors were combined with the thrombin solution, the thrombin inhibitor/thrombin solution deposited in the cartridge, and dried. […] The TDS reagent (3 microliters) was applied to cartridges and dried. Fibrinogen test samples for these cartridges comprised 40 μL of the fibrinogen working solution combined with 7 μL of the plastic sphere solution.

[4] = molecular target: T1, thrombin; experiment: Cartridge assay (CoaguChek Plus), dried thrombin reagent in cartridge, inhibitor added to sample; format: biochemical, bovine; set-up: adding thrombin (Calbiochem 605157 bovine) to the HEPES Base solution; purchased Calbiochem 605157; details: for Concentration in reagent found to be effective: clotting time above 10 s and below 300 s for fibrinogen 50 to 400 mg/dL, under 10 s without inhibitor
Description: An assay cartridge as described above was constructed in which the reagent chamber was coated with a dried reagent containing thrombin in a HEPES buffer matrix. Liquid samples containing latex beads as blood cell surrogates and various levels of fibrinogen were introduced into the cartridge contained within a CoaguChek™ Plus device. Just prior to introducing a sample into the device, the particular thrombin modulator being tested was added to the sample. A variety of thrombin modulators were tested in this manner.
A HEPES Base solution, pH=7.4, was formed from the following ingredients:
A thrombin solution was formed by adding thrombin (Calbiochem 605157 bovine) to the HEPES Base solution, the resulting concentration being 67 units/mL thrombin.
A 10% solution by weight of polystyrene spheres with a mean diameter of 3.27 μm (Bang Laboratories P0032700) was utilized as a blood cell surrogate for plasma or synthetic blood solutions “plastic sphere solution”).
Test cartridges were prepared by applying 3 microliters of the thrombin solution thereto and drying the solution. For each sample, a fresh “thrombin” cartridge was utilized.
Cartridges containing the dried thrombin reagent were utilized for the following experiments. Standard solutions were prepared in accordance with Example 3, except the thrombin inhibitor concentration was fixed, and the fibrinogen concentrations varied.

Compound: Gly-Pro-Ala
- Thrombin inhibitor found to be effective [1]: effective

Compound: Polyanetholesulfate
- Thrombin inhibitor found to be effective [1]: effective

Compound: dextran sulfate [dextran sulfate (10,000 Da)]
- Clot Time ([2]; final assay fibrinogen 100 mg/dL, about 0.6 s without dextran sulfate): 22.8 s
- Clot Time ([2]; final assay fibrinogen 200 mg/dL): 11.8 s
- Clot Time ([2]; final assay fibrinogen 250 mg/dL): 9.8 s
- Clot Time ([2]; final assay fibrinogen 400 mg/dL): 1.2 s
- Found useful/effective as thrombin inhibitor in fibrometer wet assay [2]: useful thrombin inhibitor reagent
- Clotting Time After Application To Inlet Port Of Cartridge ([3]; TDS reagent dried in cartridge (67 units/mL thrombin, 57 mg/mL dextran sulfate 10,000 Da), fibrinogen 198 mg/mL (so in the source)): 40.0 s
- Clotting Time After Application To Inlet Port Of Cartridge ([3]; TDS reagent dried in cartridge (67 units/mL thrombin, 57 mg/mL dextran sulfate 10,000 Da), fibrinogen 396 mg/mL (so in the source)): 26.7 s
- Clotting Time After Application To Inlet Port Of Cartridge ([3]; TDS reagent dried in cartridge (67 units/mL thrombin, 57 mg/mL dextran sulfate 10,000 Da, 3 microliters), fibrinogen 99 mg/mL (so in the source)): 69.6 s
- Clotting Time After Application To Inlet Port Of Cartridge Containing Thrombin Reagent ([4]; 21 mg/mL dextran sulfate (10,000 Da), fibrinogen 100 mg/mL (so in the source) in combined assay solution): 157.5 s
- Clotting Time After Application To Inlet Port Of Cartridge Containing Thrombin Reagent ([4]; 21 mg/mL dextran sulfate (10,000 Da), fibrinogen 102 mg/mL (so in the source)): 81.9 s
- Clotting Time After Application To Inlet Port Of Cartridge Containing Thrombin Reagent ([4]; 21 mg/mL dextran sulfate (10,000 Da), fibrinogen 204 mg/mL (so in the source)): 28.6 s

Compound: dextran sulfate
- Found useful/effective as thrombin inhibitor in fibrometer wet assay ([2]; listed as dextran sulfate (50,000 Da—Dextralip 50)): effective

Compound: dextran sulfate [Dextran Sulfate-5,000 Da]
- Concentration in reagent found to be effective [4]: 5 mg/mL

Compound: dextran sulfate [dextran sulfate (5,000-50,000 MW)]
- Thrombin inhibitor found to be effective [1]: effective

Compound: O=C(NCCCNC(=O)[C@H](OS(=O)(=O)O)[C@@H](OS(=O)(=O)O)[C@H](O[C@@H]1O[C@H](COS(=O)(=O)O)[C@H](OS(=O)(=O)O)[C@H](OS(=O)(=O)O)[C@H]1OS(=O)(=O)O)[C@@H](COS(=O)(=O)O)OS(=O)(=O)O)[C@H](OS(=O)(=O)O)[C@@H](OS(=O)(=O)O)[C@H](O[C@@H]1O[C@H](COS(=O)(=O)O)[C@H](OS(=O)(=O)O)[C@H](OS(=O)(=O)O)[C@H]1OS(=O)(=O)O)[C@@H](COS(=O)(=O)O)OS(=O)(=O)O [Aprosulate, aprosulate]
- Thrombin inhibitor found to be effective [1]: effective
- Average Clotting Time After Application To Inlet Port Of Cartridge (n = 2) ([3]; TA reagent dried in cartridge (67 units/mL thrombin, 20 10 g/dL aprosulate as printed), fibrinogen 25.5 mg/mL (so in the source)): 275 s
- Average Clotting Time After Application To Inlet Port Of Cartridge (n = 2) ([3]; TA reagent dried in cartridge, fibrinogen 102 mg/mL (so in the source)): 134 s
- Average Clotting Time After Application To Inlet Port Of Cartridge (n = 2) ([3]; TA reagent dried in cartridge, fibrinogen 204 mg/mL (so in the source)): 41 s
- Average Clotting Time After Application To Inlet Port Of Cartridge (n = 2) ([3]; TA reagent dried in cartridge, fibrinogen 408 mg/mL (so in the source)): 24 s
- Clotting Time After Application To Inlet Port Of Cartridge Containing Thrombin Reagent ([4]; 43 mg/mL aprosulate, fibrinogen 76 mg/mL (so in the source)): 149.1 s
- Clotting Time After Application To Inlet Port Of Cartridge Containing Thrombin Reagent ([4]; 43 mg/mL aprosulate, fibrinogen 153 mg/mL (so in the source)): 85.5 s
- Clotting Time After Application To Inlet Port Of Cartridge Containing Thrombin Reagent ([4]; 43 mg/mL aprosulate, fibrinogen 306 mg/mL (so in the source)): 21.4 s

Compound: Gly-Gly-Arg
- Thrombin inhibitor found to be effective [1]: effective
- Concentration in reagent found to be effective [4]: 0.85 mg/mL and 1.3 mg/mL

Compound: Polyvinylsulfate
- Thrombin inhibitor found to be effective [1]: effective

Compound: Gly-Pro-Arg
- Clotting Time After Application To Inlet Port Of Cartridge Containing Thrombin Reagent ([4]; […] Gly-Pro-Arg peptide, fibrinogen 100 mg/mL (so in the source)): 239.6 s
- Clotting Time After Application To Inlet Port Of Cartridge Containing Thrombin Reagent ([4]; […] Gly-Pro-Arg peptide, fibrinogen 102 mg/mL (so in the source)): 44.1 s
- Clotting Time After Application To Inlet Port Of Cartridge Containing Thrombin Reagent ([4]; […] Gly-Pro-Arg peptide, fibrinogen 204 mg/mL (so in the source)): 9.9 s

Compound: Cn1c(=O)c2c(ncn2C)n(C)c1=O [Caffeine, caffeine]
- Thrombin inhibitor found to be effective [1]: effective
- Clotting Time After Application To Inlet Port Of Cartridge Containing Thrombin Reagent ([4]; […] caffeine, fibrinogen 100 mg/mL (so in the source)): 88.8 s
- Clotting Time After Application To Inlet Port Of Cartridge Containing Thrombin Reagent ([4]; […] caffeine, fibrinogen 200 mg/mL (so in the source)): 30.0 s
- Clotting Time After Application To Inlet Port Of Cartridge Containing Thrombin Reagent ([4]; […] caffeine, fibrinogen 400 mg/mL (so in the source)): 24.8 s

Compound: N=C(N)c1ccccc1 [benzamidine]
- Clotting Time (average), n = 2 ([2]; sample fibrinogen 100 mg/dL): 242 s
- Clotting Time (average), n = 2 ([2]; sample fibrinogen 200 mg/dL): 139 s
- Clotting Time (average), n = 2 ([2]; sample fibrinogen 400 mg/dL): 93 s
- Thrombin inhibitor found to be effective [1]: effective
